What was measured:
SDH (J774) = molecular target: T1, SDH (J774) (Mus musculus, UniProt Q8K2B3); test: Effect on J774 cells succinate dehydrogenase; type: biochemical; conditions: incubation at 28° C. for 5 min
T1 construct: endogenous in cells; host or cells: J774 cells, membrane rich fraction

IL-4 = test: Intracellular cytokine staining in stimulated human mononuclear cells; type: cell-based; conditions: 25 μg/ml compound
Protocol: (§1) Therefore, experiments were performed to examine the effect of Licochalcone A and SBC-35ma on secretion of TNF-α from the stimulated cells. These experiments included detection of the cytokines in the cell lysate by ELISA and staining of the intracellular cytokines by using monoclonal antibodies against these cytokines and cytokine receptors.
(§2) Table 3. Effect of Licochalcone A and SBC-35ma on the presence of intracellur cytokines in the human peripheral blood mononuclear cells stimulated either with a malarial exoantigen SPAG (diluted 1:12.5) or bacterial LPS (diluted 1:1000). The cells were preincubated with 25 μg/ml of each of the compounds for 2 hours and then incubated in the presence of antigens at 37° C. overnight. The cells were permeabilized and then fixed in paraformaldehyde Cytokine specific monoclonal antibodies were used for the detection of positive cells for each cytokine. Data are presented as percentages of positive cells for each cytokine.

IL-1β = test: as above; type: cell-based; conditions: 25 μg/ml compound
Protocol: as §1, §2

IL-6 = test: as above; type: cell-based; conditions: 25 μg/ml compound
Protocol: as §1, §2

TNF-α [1] = test: as above; type: cell-based; conditions: 25 μg/ml compound
Protocol: as §1, §2

IL-1α = test: as above; type: cell-based; conditions: 25 μg/ml compound, 2 hours preincubation
Protocol: as §1, §2

TNF-α [2] = test: TNF-α in lysate of stimulated human mononuclear cells (ELISA); type: cell-based; conditions: cells preincubated with compound, stimulated with SPAG or LPS
Protocol: as §1

[3] = Preliminary 14 days oral toxicity study in rats; type: in vivo; conditions: highest dose level 1000 mg/kg/day
Protocol: A preliminary 14 days oral toxicity study in rats was carried out with 6 compounds. Observations included clinical signs, body weights, food intake, haematology, clinical chemistry and macroscopic pathology.

NDH (J774) = test: Effect on J774 cells NADH dehydrogenase; type: biochemical; conditions: incubation at 28° C. for 5 min
Protocol: FIG. 17. Effect of licochalcone A on J774 cells NADH dehydrogenase. Membrane rich fraction of parasite was incubated with licochalcone A at 28° C. for 5 min, the remaining enzyme activity was measured. Data are mean ±SEM from 4 different experiments.

Clostridium perfringes = test: Effect on anaerobic bacteria (growth); type: cell-based; conditions: at a concentration of 5 μg/ml
Parainfluenza-3 Virus = test: Antiviral activity in Vero cell cultures; type: cell-based; conditions: Vero cells; values given as fractions
Protocol: (§3) IC50 values are determined by the virus plaque formation and/or the virus cytopathic assay using standard methods well-known in the art.
(§4) In the following is reported the results from a Vero cell culture infected with different viruses. The cell culture used as well as the methods applied are well known to a person skilled in the art.

Simliki forest virus = test: Antiviral activity in Vero cell cultures; type: cell-based; conditions: Vero cells; values given as fractions
Protocol: as §3, §4

Sindbis virus = test: Antiviral activity in Vero cell cultures; type: cell-based; conditions: Vero cells; values given as fractions
Protocol: as §3, §4

Reovirus-1 = test: Antiviral activity in Vero cell cultures; type: cell-based; conditions: Vero cells; values given as fractions
Protocol: as §3, §4

Coxsackie virus B4 = test: Antiviral activity in Vero cell cultures; type: cell-based; conditions: Vero cells; values given as fractions
Protocol: as §3, §4

[4] = Single dose toxicity in rats; type: in vivo
Protocol: Also in rats, LDlow po>1000 mg/kg was found. Studies carried out later in the project using the dosing schedule, also used to measure effects against the malaria parasites, confirmed the very good oral tolerance to all compounds tested.

T1 sequence (Q8K2B3 43-664): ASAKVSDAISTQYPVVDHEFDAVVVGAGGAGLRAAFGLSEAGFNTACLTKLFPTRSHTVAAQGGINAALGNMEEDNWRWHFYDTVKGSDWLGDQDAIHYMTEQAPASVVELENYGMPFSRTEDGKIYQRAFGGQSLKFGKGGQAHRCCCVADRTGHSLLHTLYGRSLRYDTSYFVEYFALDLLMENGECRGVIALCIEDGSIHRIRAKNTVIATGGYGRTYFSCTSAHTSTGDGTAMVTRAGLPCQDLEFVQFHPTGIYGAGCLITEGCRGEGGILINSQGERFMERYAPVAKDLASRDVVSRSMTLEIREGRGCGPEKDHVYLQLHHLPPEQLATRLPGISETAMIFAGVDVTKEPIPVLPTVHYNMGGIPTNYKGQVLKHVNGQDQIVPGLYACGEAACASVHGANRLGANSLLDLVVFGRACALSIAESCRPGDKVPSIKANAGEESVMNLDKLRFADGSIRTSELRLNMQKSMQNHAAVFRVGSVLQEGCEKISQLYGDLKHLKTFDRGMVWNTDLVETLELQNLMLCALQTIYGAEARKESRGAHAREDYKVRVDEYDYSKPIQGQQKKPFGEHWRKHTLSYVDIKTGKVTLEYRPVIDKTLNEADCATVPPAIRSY
T1 sequence (Q9CQA3 31-282 partner): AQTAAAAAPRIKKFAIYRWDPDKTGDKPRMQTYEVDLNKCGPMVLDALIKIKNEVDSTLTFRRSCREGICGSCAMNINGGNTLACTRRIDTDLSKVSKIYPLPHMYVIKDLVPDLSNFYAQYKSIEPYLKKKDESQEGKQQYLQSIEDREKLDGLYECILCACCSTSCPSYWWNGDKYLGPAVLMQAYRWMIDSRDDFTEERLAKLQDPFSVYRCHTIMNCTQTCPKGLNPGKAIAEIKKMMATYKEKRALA
T1 sequence (Q9CZB0 30-169 partner): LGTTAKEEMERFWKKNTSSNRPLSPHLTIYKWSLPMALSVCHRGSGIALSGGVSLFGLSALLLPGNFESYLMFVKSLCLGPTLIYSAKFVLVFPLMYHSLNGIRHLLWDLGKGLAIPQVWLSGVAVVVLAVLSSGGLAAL
T1 sequence (Q9CXV1 57-159 partner): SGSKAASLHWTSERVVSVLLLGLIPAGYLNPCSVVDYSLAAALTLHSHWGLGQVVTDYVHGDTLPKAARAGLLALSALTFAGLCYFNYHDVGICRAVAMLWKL

## C=CC(C)(C)c1cc(/C=C/C(=O)c2ccc(O)cc2)c(OC)cc1O [Licochalcone A]
SDH (J774)
  IC50: 1122.2 μg/mg protein
IL-4; LPS 1:1000, LPS alone 0
  percentages of positive cells for IL-4: 0%
IL-4; SPAG 1:12.5, SPAG alone 0
  percentages of positive cells for IL-4: 0.69%
IL-1β; LPS 1:1000, LPS alone 9.1
  percentages of positive cells for IL-1β: 12%
IL-1β; SPAG 1:12.5, SPAG alone 13
  percentages of positive cells for IL-1β: 13%
IL-6; LPS 1:1000, LPS alone 4.3
  percentages of positive cells for IL-6: 6.7%
IL-6; SPAG 1:12.5, SPAG alone 5.6
  percentages of positive cells for IL-6: 6.2%
TNF-α [1]; LPS 1:1000, LPS alone 0.30
  percentages of positive cells for TNF-α: 0.70%
TNF-α [1]; SPAG 1:12.5, SPAG alone 0.96
  percentages of positive cells for TNF-α: 1.0%
IL-1α; LPS 1:1000, LPS alone 13
  percentages of positive cells for IL-1α: 15%
IL-1α; SPAG 1:12.5, SPAG alone 11
  percentages of positive cells for IL-1α: 9.1%
TNF-α [2]
  intracellular TNF-α in the cell lysate (ELISA): no intracellular TNF-α present
[3]
  toxic effects: No toxic effects
NDH (J774)
  IC50: 547.7 μg/mg protein
Clostridium perfringes
  growth of Clostridium perfringes: completely inhibted
Parainfluenza-3 Virus
  Minimum inhibitory concentration, Parainfluenza-3 Virus: <1/100
Simliki forest virus
  Minimum inhibitory concentration, Simliki forest virus: <1/100
Sindbis virus
  Minimum inhibitory concentration, Sindbis virus: 1/600
Reovirus-1
  Minimum inhibitory concentration, Reovirus-1: <1/100
Coxsackie virus B4
  Minimum inhibitory concentration, Coxsackie virus B4: <1/100
[4]
  LDlow po: > 1000 mg/kg

Reference: patent US20030065039A1, “Biologically active 1,3-bis-aromatic-prop-2-en-1-ones, 1,3-bis-aromatic-propan-1-ones, and 1,3-bis-aromatic-prop-2-yn-1-ones” (Statens Serum Institute, priority 1997, published 2003)
